Legend:
[1] = tested on: CAR T cell-induced severe or life-threatening CRS; details: two cohorts; adults and pediatric patients 2 years and older; cited from earlier work
[2] = tested on: Raji, a human CD19 expressing target B cell line; assay: CD19 CAR-T co-culture assay with Raji cells: CAR-T mediated target cell lysis; format: cell-based; details: E:T ratios 5:1, 10:1, 20:1
Procedure: (§1) Human CD19 specific CAR-T effector cells from a donor were co-cultured with Raji, a human CD19 expressing target B cell line at different effector to target cell ratios of 5:1, 10:1, and 20:1 in the presence of C-2250. Co-culture was performed for 6 hours or 24 hours at 37° C., 5% CO2 prior to harvesting cells for CAR-T mediated target cell lysis or tissue culture supernatant for cytokine analysis. C-2250 was used at 500, 1000, and 1500 μM concentrations and was allowed to pre-incubate with CAR-T cells prior to addition of tumor target cells.
FIGS. 2A-2C show the results of CD19 CAR-T co-culture assay with CD-19 tumor cells (Raji) at 6 hours, CAR-T mediated tumor target cell in the present of increasing concentrations of C-2250 are shown (E:T ratios of 5:1, 10:1, and 20:1 are shown in FIGS. 2A, 2B, and 2C, respectively). FIGS. 3A-3C show the results of CD19 CAR-T co-culture assay with CD-19 tumor cells (Raji) at 24 hours, CAR-T mediated tumor target cell in the present of increasing concentrations of C-2250 are shown (E:T ratios of 5:1, 10:1, and 20:1 are shown in FIGS. 3A, 3B, and 3C, respectively).

Human PBMCs = assay: PBMC/Ramos co-culture with BLINCYTO: cytokine release; format: cell-based
Procedure: (§2) Inhibition of cytokine release by C-2250 in the presence of a bispecific CD19 T cell engager was assessed. Human PBMCs from ten donors were co-cultured with Ramos cells (a human CD19 expressing B cell line) in the presence of blinatumomab (BLINCYTO®), a T cell bispecific therapeutic, and C-2250 was added.
(§3) Co-culture was performed for 24 hours at 37° C., 5% CO2, prior to harvesting cells or tissue culture supernatant for analysis. C-2250 was used at 500, 1000, and 1500 μM concentrations and was allowed to pre-incubate with T cells prior to addition of BLINCYTO®.

[3] = tested on: Human CD19 specific CAR-T effector cells; assay: CD19 CAR-T co-culture assay with Raji cells: cytokine release; format: cell-based
Procedure: as §1

[4] = Solubility in water / isotonicity; format: physicochemical
[5] = tested on: primary human peripheral blood mononuclear cells (PBMCs); assay: LPS stimulated human PBMC cytokine release; format: cell-based; details: LPS 1 ng/ml, 48 hours; C-2250 500, 1000, 1500 μM; five donors
Procedure: The ability of C-2250 to suppress in vitro cytokine release from primary human peripheral blood mononuclear cells (PBMCs) was assessed. Lipopolysaccharide (LPS) inhibition by C-2250 was determined. PBMCs from five individual, normal healthy human volunteers were incubated with C-2250, followed by LPS stimulation for 48 hours. Detection of three different cytokines was performed using an antibody capture bead-based kit and flow cytometric analysis.
Cryopreserved PBMCs from five healthy human donors (IQ Biosciences, Catalog #I QB-PBMC103) were thawed and cultured in RPMI 1640 medium (Gibco RPMI-1640 Medium (ATCC, Catalog #30-2001) supplemented with 10% FCS, 2 mM L-glutamine, 100 IU/mL penicillin, 100 μg/mL streptomycin, 1 mM sodium pyruvate (all from ThermoFisher) with viability >85% as determined automated cell counter (Countess II FL Automated Cell Counter; ThermoFisher; Catalog #AMQAF1000) prior to experiments. For C-2250, a 73 mM stock was prepared in sterile Lactated Ringer's Solution less than two hours prior to the start of the assay by adding 100 mg C-2250 into 10 mL Lactated Ringer's Solution. Prior to use in the assay, the pH of the solution was adjusted to 7.3. 100 μl of PBMCs at 1.0×10^7 cells/mL were washed and re-suspended in tissue culture medium containing a fixed concentration (1 ng/ml) of LPS from E. coli, serotype 0111:B4. LPS stimulation was performed for 48 hours at 37° C., 5% CO2 prior to harvesting tissue culture supernatant for cytokine analysis. C-2250 was used at 500, 1000, and 1500 μM concentrations.
Each symbol represents the mean value of triplicate analysis of a single donor. Each bar per treatment group represents the mean value of all donors where the triplicate value of each donor is averaged.

[6] = tested on: Ramos cells (a human CD19 expressing B cell line); assay: PBMC/Ramos co-culture with BLINCYTO: target cell cytotoxicity; format: cell-based; details: 24 hours
Procedure: as §2, §3

[7] = C-2250 500, 1000, 1500 μM with BLINCYTO 100 ng/ml, 24 hours
[8] = E:T ratios 5:1, 10:1, 20:1, C-2250 500, 1000, 1500 μM

Row | concentration of isotonic solution [4] [%] | solubility in water ([4]; no PVP necessary) | Compound | response rates [1] | CD19 CAR-T mediated CD19+ tumor target cell cytotoxicity ([2]; 6 hours) | CD19 CAR-T mediated CD19+ tumor target cell cytotoxicity ([2]; 24 hours) | BLINCYTO T-cell mediated IFN-γ cytokine release (Human PBMCs; [7]) | BLINCYTO T-cell mediated IL-1β cytokine release (Human PBMCs; [7]) | BLINCYTO T-cell mediated IL-2 cytokine release (Human PBMCs; [7]) | BLINCYTO T-cell mediated IL-6 cytokine release (Human PBMCs; [7]) | BLINCYTO T-cell mediated TNF-α cytokine release (Human PBMCs; [7]) | release of all of the tested cytokines (Human PBMCs; with BLINCYTO, summary statement) | cytokine release (including IL-1β, IL-6, TNF-α, and IFN-γ cytokines) ([3]; CAR-T/Raji co-culture, summary statement) | CD19 CAR-T cell mediated IFN-γ cytokine release [3, 8] | CD19 CAR-T cell mediated IL-2 cytokine release [3, 8] | CD19 CAR-T cell mediated TNF-α cytokine release [3, 8] | inhibition of IL-1β cytokine release [5] | inhibition of IL-6 cytokine release [5] | inhibition of TNF-α cytokine release [5] | BLINCYTO mediated CD19+ tumor target cell cytotoxicity ([6]; C-2250 500, 1000, 1500 μM with BLINCYTO 100 ng/ml) | tumor target cytotoxicity in the absence of BLINCYTO ([6]; no BLINCYTO, PBMC/Ramos co-culture)
1 | – | – | tocilizumab: monoclonal antibody blocking the interleukin-6 (IL-6) receptor | 53%-69% | – | – | – | – | – | – | – | – | – | – | – | – | – | – | – | – | –
2 | 3.2 | very soluble | O=S1(=O)CCOCN1 [C-2250, Tetrahydro1,4,5-oxathiazin-4-dioxide] | – | does not abrograte | does not abrograte | reduced | reduced | reduced | reduced | reduced | reduced | shuts down | reduces | reduces | reduces | dose-dependent inhibition | dose-dependent inhibition | dose-dependent inhibition | did not reduce | increased

From patent US12514847B2, “Oxathiazin_dioxide for treating, preventing, inhibiting or reducing cytokine release” (Geistlich Pharma AG, priority 2019, dated 2026)
